Source: the supplement of paper PMC10627819

How the values were obtained:
Assay in all cases: fitness (endpoint OD595 vs no drug) (fraction); higher = more growth
S. aureus Newman = test system: S. aureus Newman
Summary of the method: (§1)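 Bacterial fitness was scored as optical density at the stationary-phase transition relative to the robust mean of no-drug control wells. Scores are capped at 1. The growth data were OD595 readings every 30 min for 14 h at 37 °C, background-subtracted against the first reading, from 384-well plates inoculated at OD595 0.01 in TSB, LB Lennox or CY.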

B. subtilis 168 = test system: B. subtilis 168
Summary of the method: as §1

S. aureus DSM 20231 = test system: S. aureus DSM 20231
Summary of the method: as §1
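Also: OD595 on entry to stationary phase over no-drug wells; at most 1.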

N[C@@H]1CONC1=O [Cycloserine D] + COc1c(N2C[C@@H]3CCCN[C@@H]3C2)c(F)cc2c(=O)c(C(=O)O)cn(C3CC3)c12 [Moxifloxacin]
fitness
Conditions | first compound 0.125 µg/mL | first compound 0.25 µg/mL | first compound 0.375 µg/mL | first compound 0.5 µg/mL | first compound 0.75 µg/mL | first compound 1.5 µg/mL
B. subtilis 168, partner 0.0312 µg/mL | 0.0481 | 0.0489 | – | 0.0432 | – | –
B. subtilis 168, partner 0.0625 µg/mL | 0.033 | 0.034 | – | 0.028 | – | –
B. subtilis 168, partner 0.125 µg/mL | 0.0229 | 0.0218 | – | 0.03 | – | –
B. subtilis 168, partner 2 µg/mL | 0.0539 | 0.0355 | – | 0.0265 | – | –
B. subtilis 168, partner 4 µg/mL | 0.0542 | 0.0318 | – | 0.0298 | – | –
B. subtilis 168, partner 8 µg/mL | 0.04 | 0.0429 | – | 0.0319 | – | –
S. aureus DSM 20231, partner 0.0075 µg/mL | – | – | 0.827 | – | 0.85 | 0.844
S. aureus DSM 20231, partner 0.015 µg/mL | – | – | 0.713 | – | 0.712 | 0.687
S. aureus DSM 20231, partner 0.03 µg/mL | – | – | 0.575 | – | 0.586 | 0.564
S. aureus Newman, partner 0.0075 µg/mL | – | – | 0.761 | – | 0.753 | 0.705
S. aureus Newman, partner 0.015 µg/mL | – | – | 0.599 | – | 0.552 | 0.586
S. aureus Newman, partner 0.03 µg/mL | – | – | 0.119 | – | 0.0631 | 0.06

fitness, S. aureus DSM 20231, one replicate
Conditions | first compound 0.375 µg/mL | first compound 0.75 µg/mL | first compound 1.5 µg/mL
partner 0.06 µg/mL | 0.658 | 0.656 | 0.654
partner 0.12 µg/mL | 0.483 | 0.518 | 0.483

N[C@@H]1CONC1=O [Cycloserine D] + COc1ccc(C[C@H](N)C(=O)N[C@H]2[C@@H](O)[C@H](n3cnc4c(N(C)C)ncnc43)O[C@@H]2CO)cc1 [Puromycin]
fitness
Conditions | first compound 0.125 µg/mL | first compound 0.25 µg/mL | first compound 0.375 µg/mL | first compound 0.5 µg/mL | first compound 0.75 µg/mL | first compound 1.5 µg/mL
B. subtilis 168, partner 0.39 µg/mL | 0.958 | 0.889 | – | 0.955 | – | –
B. subtilis 168, partner 0.78 µg/mL | 0.931 | 0.894 | – | 0.968 | – | –
B. subtilis 168, partner 1.56 µg/mL | 0.959 | 0.929 | – | 0.915 | – | –
S. aureus DSM 20231, partner 0.39 µg/mL | – | – | ≥ 1 | – | ≥ 1 | ≥ 1
S. aureus DSM 20231, partner 0.78 µg/mL | – | – | ≥ 1 | – | ≥ 1 | ≥ 1
S. aureus DSM 20231, partner 1.56 µg/mL | – | – | 1 | – | ≥ 1 | ≥ 1
S. aureus Newman, partner 0.39 µg/mL | – | – | ≥ 1 | – | ≥ 1 | ≥ 1
S. aureus Newman, partner 0.78 µg/mL | – | – | 0.999 | – | 0.977 | 0.989
S. aureus Newman, partner 1.56 µg/mL | – | – | ≥ 1 | – | 0.998 | ≥ 1

fitness, S. aureus DSM 20231, one replicate
Conditions | first compound 0.375 µg/mL | first compound 0.75 µg/mL | first compound 1.5 µg/mL
partner 3.12 µg/mL | ≥ 1 | ≥ 1 | 0.977
partner 6.24 µg/mL | 0.748 | 0.718 | 0.687

N[C@@H]1CONC1=O [Cycloserine D] + COc1cccc2c1C(=O)c1c(O)c3c(c(O)c1C2=O)C[C@@](O)(C(=O)CO)C[C@@H]3O[C@H]1C[C@H](N)[C@H](O)[C@H](C)O1 [Doxorubicin]
fitness
Conditions | first compound 0.125 µg/mL | first compound 0.25 µg/mL | first compound 0.375 µg/mL | first compound 0.5 µg/mL | first compound 0.75 µg/mL | first compound 1.5 µg/mL
B. subtilis 168, partner 0.625 µg/mL | 0.976 | 0.959 | – | 0.921 | – | –
B. subtilis 168, partner 1.25 µg/mL | 0.919 | 0.939 | – | 0.891 | – | –
B. subtilis 168, partner 2.5 µg/mL | 0.754 | 0.704 | – | 0.722 | – | –
S. aureus DSM 20231, partner 0.625 µg/mL | – | – | 0.942 | – | 0.898 | 0.905
S. aureus DSM 20231, partner 1.25 µg/mL | – | – | 0.867 | – | 0.891 | 0.953
S. aureus DSM 20231, partner 2.5 µg/mL | – | – | 0.861 | – | 0.841 | 0.774
S. aureus Newman, partner 0.625 µg/mL | – | – | 0.796 | – | 0.809 | 0.827
S. aureus Newman, partner 1.25 µg/mL | – | – | 0.797 | – | 0.797 | 0.799
S. aureus Newman, partner 2.5 µg/mL | – | – | 0.748 | – | 0.75 | 0.771

N[C@@H]1CONC1=O [Cycloserine D] + C[C@@H]1O[C@@H]1P(=O)(O)O [Fosfomycin]
fitness
Conditions | first compound 0.125 µg/mL | first compound 0.25 µg/mL | first compound 0.375 µg/mL | first compound 0.5 µg/mL | first compound 0.75 µg/mL | first compound 1.5 µg/mL
B. subtilis 168, partner 1.562 µg/mL | 0.71 | 0.666 | – | 0.679 | – | –
B. subtilis 168, partner 3.124 µg/mL | 0.608 | 0.583 | – | 0.592 | – | –
B. subtilis 168, partner 6.248 µg/mL | 0.479 | 0.504 | – | 0.453 | – | –
S. aureus DSM 20231, partner 0.781 µg/mL | – | – | 0.724 | – | 0.703 | 0.764
S. aureus DSM 20231, partner 1.562 µg/mL | – | – | 0.586 | – | 0.577 | 0.597
S. aureus DSM 20231, partner 3.124 µg/mL | – | – | 0.451 | – | 0.471 | 0.481
S. aureus Newman, partner 0.781 µg/mL | – | – | 0.64 | – | 0.623 | 0.669
S. aureus Newman, partner 1.562 µg/mL | – | – | 0.516 | – | 0.518 | 0.514
S. aureus Newman, partner 3.124 µg/mL | – | – | 0.165 | – | 0.201 | 0.172

N[C@@H]1CONC1=O [Cycloserine D] + C[n+]1ccc(-c2cc[n+](C)cc2)cc1 [Paraquat]
fitness
Conditions | first compound 0.125 µg/mL | first compound 0.25 µg/mL | first compound 0.375 µg/mL | first compound 0.5 µg/mL | first compound 0.75 µg/mL | first compound 1.5 µg/mL
B. subtilis 168, partner 1.25 µg/mL | 0.939 | 0.919 | – | 0.958 | – | –
B. subtilis 168, partner 2.5 µg/mL | 0.911 | 0.905 | – | 0.899 | – | –
B. subtilis 168, partner 5 µg/mL | 0.842 | 0.787 | – | 0.746 | – | –
S. aureus DSM 20231, partner 1.25 µg/mL | – | – | 0.976 | – | 0.978 | 0.964
S. aureus DSM 20231, partner 2.5 µg/mL | – | – | ≥ 1 | – | 0.977 | ≥ 1
S. aureus DSM 20231, partner 5 µg/mL | – | – | 0.977 | – | 0.983 | 0.965
S. aureus Newman, partner 1.25 µg/mL | – | – | 0.962 | – | 0.871 | 0.899
S. aureus Newman, partner 2.5 µg/mL | – | – | 0.979 | – | 0.966 | 0.984
S. aureus Newman, partner 5 µg/mL | – | – | 0.938 | – | 0.969 | 0.93
